Assay results as given in ChEMBL document CHEMBL1121838, “Synthesis and anticholinergic properties of the enantiomers of 4-(isopropylamino)-2-(2-pyridyl)-2-phenylbutyramide, the mono-N-dealkylated metabolite of disopyramide” (J Med Chem, 1981).
pIC50, pKd: −log10 of the molar value.

Tests used:
[1] = species on record: Cavia porcellus; assay: Inhibitory concentration of guinea pig ileum longitudinal muscle produced in response to electrically simulated release of acetylcholine; assay type: functional, Muscle tissue
[2] = species on record: Cavia porcellus; assay: Inhibitory concentration of guinea pig ileum longitudinal muscle strips to antagonize electrically stimulated contractions; assay type: functional; conditions: Muscle tissue
[3] = species on record: Cavia porcellus; assay: Mean dissociation constant was measured for acetylcholine-induced contractions; assay type: functional

SMILES	pIC50 [1]	pIC50 [2]	pKd [3]	pIC50 ([1]; Cavia porcellus, Muscle tissue)
CC(C)NCC[C@@](C(N)=O)(c1ccccc1)c1ccccn1 (stereo in doubt; 2 (2R))	4.85	–	–	–
CC(C)N(CCC(C(N)=O)(c1ccccc1)c1ccccn1)C(C)C (configuration not stated) [DISOPYRAMIDE]	–	5.82	5.66	–
CC(C)NCCC(C(N)=O)(c1ccccc1)c1ccccn1 (configuration not stated) [N-MONODEISOPROPYL DISOPYRAMIDE]	–	5.49	5.42	–
CC(C)N(CC[C@](C(N)=O)(c1ccccc1)c1ccccn1)C(C)C [(S)-DISOPYRAMIDE]	–	–	–	5.35
CC(C)NCC[C@@](C(N)=O)(c1ccccc1)c1ccccn1 (stereo in doubt; 2 (2S))	5.30	–	–	–
